The nature of the data set: molar enthalpy of vaporization or sublimation. The note with it: 298 K; Crystal; Static calorimetry.

The values that follow come from the NIST ThermoML archive (doi:10.1016/j.jct.2007.11.008).

± gives the expanded uncertainty stated by the source.

As to `CC(C)CN(CC(C)C)C(=S)NC(=O)c1cccs1`, the molar enthalpy worked out at 48.57 ± 0.263 kcal/mol.
Consider `CCCCN(CCCC)C(=S)NC(=O)c1cccs1` [N-((dibutylamino)thioxomethyl)-2-thiophenecarboxamide], for which the molar enthalpy was 48.92 ± 0.263 kcal/mol.
